Laboratory results as given in ChEMBL document CHEMBL1201862, “PubChem BioAssay data set” (2004).
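Where inhibition never reached the appropriate level, the endpoint shown equals the highest concentration tested. Otherwise, values were interpolated linearly from a five-concentration, 48-hour dose response in 96-well plates. GI50 is the concentration that inhibits growth by half.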 The source made the active and inactive calls. Rule as the data show it: active = GI50 up to about 1.1 µM and inactive = higher.

How the values were obtained:
Assay in all cases: NCI tumour cell line growth inhibition, 48 h
HOP-18 = test system: HOP-18
KM-20L2 = test system: KM-20L2
RXF 631 = test system: RXF 631
XF498 = test system: XF498
M19-MEL = test system: M19-MEL
DU-145 = test system: DU-145
Hs-578T = test system: Hs-578T
PC-3 = test system: PC-3
T47D = test system: T47D

Compound	GI50 (HOP-18)	GI50 (KM-20L2)	GI50 (RXF 631)	GI50 (XF498)	GI50 (M19-MEL)	GI50 (DU-145)	GI50 (Hs-578T)	GI50 (PC-3)	GI50 (T47D)
CC(SC1=CC(=O)c2c(O)ccc(O)c2C1=O)C(=O)O (configuration not stated)	> 55.3 µM (inactive)	> 51.8 µM (inactive)	56.4 µM (inactive)	> 49.9 µM (inactive)					
COc1ccc(C(c2ccc(C(C)C)cc(=O)c2O)c2c(O)cc3oc(-c4ccccc4)cc(=O)c3c2O)cc1 (configuration not stated)	17.3 µM (inactive)	9.82 µM (inactive)	11.3 µM (inactive)	9.4 µM (inactive)	7.33 µM (inactive)				
CCC(C)C(=O)c1c(O)c(C/C=C(\C)CCC=C(C)C)c(O)c2c(C(O)CC)cc(=O)oc12 (configuration not stated)		1.23 µM (inactive)	1.74 µM (inactive)	1.82 µM (inactive)	2.28 µM (inactive)				
Cc1nc2ccc(C(F)(F)F)cc2nc1Nc1ccc(Cl)c(Cl)c1	15.3 µM (inactive)	4.11 µM (inactive)	7.41 µM (inactive)	10 µM (inactive)	12.1 µM (inactive)				
CC1NC(=O)C2=C1C(N)=NC(=O)C2 (configuration not stated)	> 100 µM (inactive)	> 100 µM (inactive)		> 100 µM (inactive)	> 100 µM (inactive)				
COc1cccc(/C=C/C(=O)c2sc(C(N)=S)nc2C)c1O	> 41.5 µM (inactive)	> 100 µM (inactive)	31.1 µM (inactive)	> 100 µM (inactive)	34.4 µM (inactive)				
C[C@H]1COC(c2ccccn2)=N1	> 100 µM (inactive)	> 100 µM (inactive)		> 100 µM (inactive)	> 100 µM (inactive)				
CC1=C(C(=O)Nc2ccccc2C)C(c2ccc(Cl)c(Cl)c2)C(C(=O)Nc2ccccc2C)=C(C)N1	22.9 µM (inactive)	16.1 µM (inactive)	19.8 µM (inactive)	26.2 µM (inactive)	19.7 µM (inactive)				
CC(=O)n1nnc2ccc([N+](=O)[O-])cc21	90.6 µM (inactive)	> 100 µM (inactive)		> 100 µM (inactive)	> 100 µM (inactive)				
CC1=N/C(=C/c2ccc3c(c2)OCO3)C(=O)O1	> 100 µM (inactive)	> 100 µM (inactive)	> 100 µM (inactive)	> 100 µM (inactive)	> 100 µM (inactive)				
CCNCCCCNCC	> 37.5 µM (inactive)	> 2090 µM (inactive)		> 3750 µM (inactive)	> 2930 µM (inactive)				
CC(=O)NC(CCCNC(=O)N(C)N=O)C(=O)NCc1ccccc1 (configuration not stated)		> 100 µM (inactive)	> 100 µM (inactive)	> 100 µM (inactive)	> 100 µM (inactive)				
C#C[C@H](CCCC)OC(=O)N[C@H](C)c1ccccc1	> 100 µM (inactive)	66.5 µM (inactive)	62.1 µM (inactive)	84.1 µM (inactive)	30.5 µM (inactive)				
COC(=O)/C=c1\s/c(=C\C(=O)OC)c2ccccc12	> 100 µM (inactive)	> 100 µM (inactive)	> 100 µM (inactive)		> 100 µM (inactive)				
CC(=O)C1CC(C)=CCC12C(=O)Nc1ccccc12 (configuration not stated)	> 100 µM (inactive)	> 100 µM (inactive)	> 100 µM (inactive)	> 100 µM (inactive)					
COc1ccc(/C=c2/s/c(=C(\C#N)c3nc4ccccc4[nH]3)n(-c3ccccc3)c2=O)cc1	25 µM (inactive)	> 100 µM (inactive)		30.1 µM (inactive)	> 100 µM (inactive)	94.6 µM (inactive)	4.45 µM (inactive)	24 µM (inactive)	> 100 µM (inactive)
NC(=O)c1ccccc1NC(=O)C(=O)Nc1n[nH]c(N)n1	> 100 µM (inactive)	> 100 µM (inactive)		> 100 µM (inactive)	> 100 µM (inactive)				
COC(=O)C#CC(N)=O	53.5 µM (inactive)	> 31.6 µM (inactive)	> 100 µM (inactive)		> 64.3 µM (inactive)				
COc1cc(/C=C2/C(=O)NC(Cc3cc(OC)c(OC)c(C)c3OC)C(=O)N2Cc2ccccc2)c(OC)c(C)c1OC (configuration not stated)	18.3 µM (inactive)	95.9 µM (inactive)	90.2 µM (inactive)		47.4 µM (inactive)				
COc1cc(/C=C\c2cccnc2)cc(OC)c1OC	> 100 µM (inactive)	33.8 µM (inactive)		48.9 µM (inactive)	76.7 µM (inactive)				
CC(=O)OC(C)C(=O)C1c2cccc(O)c2C(=O)c2c(O)cc(C)cc21 (configuration not stated)	1.12 µM (inactive)	1.37 µM (inactive)		0.234 µM (active)	0.367 µM (active)				
COc1ccc2c(c1)O[C@H]1c3ccc(O)cc3OC[C@@H]21	93.5 µM (inactive)	31.6 µM (inactive)	31.8 µM (inactive)	20.5 µM (inactive)	18 µM (inactive)				
C/C(=N\N=C(/S)N1CCCCCC1)c1cccc[n+]1[O-]	18.2 µM (inactive)	0.839 µM (active)	8.59 µM (inactive)	5.27 µM (inactive)	8.39 µM (inactive)	31.5 µM (inactive)	33 µM (inactive)		3.4 µM (inactive)
